Target: T1, KRAS 4B G12C protein (Homo sapiens, UniProt P01116, G12C)
T1 construct: This protein contained 188 amino acids in total, including an N-terminal 6-Histidine tag; made in house; host or cells: E. coli BL21
Experiment: In vitro covalent adduct formation (CAF) assay by LC-MS
Format: binding
Details: compound 10 μM, protein 5 μM, 22° C., percentage of protein bound by the compound
Method in brief: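 Recombinant His-TEV-tagged KRAS 4B G12C (residues 1-169, E. coli) at 5 μM in Tris-buffered saline pH 7.4 was incubated with 10 μM compound (4% DMSO) at 22° C. for one hour, sampling over time. Intact-mass LC-MS free:adduct ratios gave % protein bound; duplicates.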

Row | SMILES | CAF (10 minutes/60 minutes) at 10 micromolar: 10 minutes | CAF (10 minutes/60 minutes) at 10 micromolar: 60 minutes
1 | C=CC(=O)N1CCN(c2nc(OC[C@@H]3CCCN3C)nc3c2CN(c2cccc4cccc(C)c24)C3)C[C@@H]1CC#N [1-17, 2-((S)-1-acryloyl-4-(6-(8-methylnaphthalen-1-yl)-2-(((S)-1-methylpyrrolidin-2-yl)methoxy)-6,7-dihydro-5H-pyrrolo[3,4-d]pyrimidin-4-yl)piperazin-2-yl)acetonitrile] | 90% | 99%
2 | C=CC(=O)N1CCN(c2nc(OC[C@@H]3CCCN3C)nc3c2CN(Cc2c(Cl)cccc2OC(F)F)C3)CC1 [1-94] | 0%/ 0% | 0%/ 0%
3 | C=C(F)C(=O)N1CCN(c2nc(OC[C@@H]3CCCN3C)nc3c2CN(Cc2nc(NC)ccc2Cl)C3)C[C@@H]1CC#N [1-361] | 16% | 61%
4 | CN1CCC[C@H]1COc1nc2c(c(N3CCN(C(=O)C45CC4C5)[C@@H](CC#N)C3)n1)CN(Cc1ccccc1Cl)C2 (stereo partly shown) [1-317] | 0%/ 0% | 0%/ 0%
5 | C=C(F)C(=O)N1CCN(c2nc(OC[C@@H]3CCCN3C)nc3c2CN(Cc2n[nH]cc2C)C3)C[C@@H]1CC#N [1-344] | 0% | 2%
6 | C=C(F)C(=O)N1CCN(c2nc(OC[C@@H]3CCCN3C)nc3c2CN(C2CCc4cccc(Cl)c42)C3)C[C@@H]1CC#N (stereo partly shown) [1-154] | 52% | 82%
7 | C=C(F)C(=O)N1CCN(c2nc(OC[C@@H]3CCCN3C)nc3c2CN(Cc2cc(O)ccc2Cl)C3)C[C@@H]1CC#N [1-87] | 97% | 99%
8 | C=CC(=O)N1CCN(c2nc(OC[C@@H]3CCCN3C)nc3c2CN(C2CCc4ccccc42)C3)C[C@@H]1Cn1cccn1 (stereo partly shown) [1-220] | 0% | 2%
9 | C=CC(=O)N1CCN(c2nc(OC[C@@H]3CCCN3C)nc3c2CN(Cc2c(F)cccc2F)C3)[C@@H](C)C1 [1-14] | 0% | 8%
10 | C=CC(=O)N1CCN(c2nc(OC[C@@H]3CCCO3)nc3c2CN(Cc2c(O)cccc2F)C3)C[C@@H]1CC#N [1-95] | 21% | 70%
11 | C=CC(=O)N1CCN(c2nc(OCCOC)nc3c2CN(C2CCc4ccccc42)C3)C[C@@H]1CC#N (stereo partly shown) [1-129] | 26% | 64%
12 | C=CC(=O)N1CCN(c2nc(OC[C@@H]3CCCN3C)nc3c2CN(C2COc4ccccc42)C3)C[C@@H]1CC#N (stereo partly shown) [1-106] | 59% | 75%
13 | C=CC(=O)N1CCN(c2nc(OC[C@@H]3CCCN3C)nc3c2CN(S(=O)(=O)c2ccccc2C)C3)C[C@@H]1CC#N [1-237] | 27% | 80%
14 | C=CC(=O)N1CCN(c2nc(OC[C@@H]3CCCN3C)nc3c2CN(Cc2cccc4cccc(C)c24)C3)C[C@@H]1CC#N [1-16] | 40% | 86%
15 | C=CC(=O)N1CCN(c2nc(OC[C@@H]3CCCN3C)nc3c2CN(Cc2cnccc2Cl)C3)C[C@@H]1CC#N [1-119] | 66% | 94%
16 | C=CC(=O)N1CCN(c2nc(OC[C@@H]3CCCN3C)nc3c2CN(Cc2cccc4ccccc24)C3)C[C@@H]1CC#N [1-164] | 93% | 95%
17 | C=CC(=O)N1CCN(c2nc(OC[C@@H]3CCCN3C)nc3c2CN(Cc2cc(F)ccc2F)C3)C[C@@H]1CC#N [1-27] | 68% | 97%
18 | C=CC(=O)N1CCN(c2nc(OC)nc3c2CN(Cc2cc(OC)ccc2Cl)C3)C[C@@H]1CC#N [1-74] | 2% | 21%
19 | C=CC(=O)N1CCN(c2nc(OC[C@@H]3CCCN3C)nc3c2CN(Cc2c(CC)ccc(O)c2C)C3)C[C@@H]1CC#N [1-255] | 92% | 94%
20 | C=CC(=O)N1CCN(c2nc(OC[C@@H]3CCCN3C)nc3c2CN(Cc2c(C)cccc2OC(F)F)C3)C[C@@H]1CC#N [1-83] | 97% | 100%
21 | C=CC(=O)N1C[C@H](C)N(c2nc(OC[C@@H]3CCCN3C)nc3c2CN(Cc2c(C)ccc4[nH]ncc24)C3)C[C@H]1C [1-22] | 1% | 15%

Row | SMILES | CAF (10 minutes/60 minutes) at 10 micromolar: 10 minutes | CAF (10 minutes/60 minutes) at 10 micromolar: 60 minutes
22 | C=CC(=O)N1CCN(c2nc(CC[C@@H]3CCCN3C)nc3c2CN(C2CCc4ccccc42)C3)C[C@@H]1CC#N (stereo partly shown) [1-146] | 7% | 33%
23 | C=CC(=O)N1CCN(c2nc(OC[C@@H]3CCCN3C)nc3c2CN(Cc2cc(Cl)ccc2F)C3)[C@@H](C)C1 [1-33] | 0% | 5%
24 | C=CC(=O)N1CCN(c2nc(-c3nnc(C)o3)nc3c2CN(C2CCc4ccccc42)C3)C[C@@H]1CC#N (stereo partly drawn) [1-197, 2-((2S)-1-acryloyl-4-(6-(2,3-dihydro-1H-inden-1-yl)-2-(5-methyl-1,3,4-oxadiazol-2-yl)-6,7-dihydro-5H-pyrrolo[3,4-d]pyrimidin-4-yl)piperazin-2-yl)acetonitrile] | 24% | 52%
25 | C=CC(=O)N1CCN(c2nc(OC[C@@H]3CCCN3C)nc3c2CN(C2CCc4ccccc42)C3)C[C@@H]1CC#N (stereo partly shown) [1-42] | 84% | 95%
26 | C=CC(=O)N1CCN(c2nc(OCCN3CCOCC3)nc3c2CN(Cc2cc(O)ccc2C)C3)[C@@H](C)C1 [1-123] | 0% | 2%
27 | C=CC(=O)N1CCN(c2nc(OC[C@@H]3CCCO3)nc3c2CN(Cc2c(F)cccc2OC)C3)C[C@@H]1CC#N [1-79] | 3% | 23%
28 | C#C[C@H]1CN(C(=O)C=C)CCN1c1nc(OC[C@@H]2CCCN2C)nc2c1CN(C1CCc3ccccc31)C2 (stereo partly drawn) [1-162, 1-[(3S)-4-[6-(2,3-dihydro-1H-inden-1-yl)-2-{[(2S)-1-methylpyrrolidin-2-yl]methoxy}-5H,7H-pyrrolo[3,4-d]pyrimidin-4-yl]-3-ethynylpiperazin-1-yl]prop-2-en-1-one] | 2% | 12%
29 | C=CC(=O)N1CCN(c2nc(OC)nc3c2CN(Cc2cc(O)ccc2Cl)C3)C[C@@H]1CC#N [1-78] | 89% | 97%
30 | C=CC(=O)N1CCN(c2nc(OC[C@@H]3CCCN3C)nc3c2CN(Cc2cccc4ncccc24)C3)C[C@@H]1CC#N [1-318] | 1% | 11%
31 | C=CC(=O)N1CCN(c2nc(OC[C@@H]3CCCN3C)nc3c2CN(C2CCc4ccccc42)C3)C[C@@H]1CO (stereo partly shown) [1-116] | 2% | 17%
32 | C=CC(=O)N1CCN(c2nc(OC[C@@H]3CCCN3C)nc3c2CN(C(=O)c2cccc(C(F)F)c2)C3)[C@@H](C)C1 [1-24] | 0%/ 0% | 0%/ 0%
33 | C=CC(=O)N1CCN(c2nc(OC[C@@H]3CCCN3C)nc3c2CN(C2CC(C)(C)c4ccc(OC)cc42)C3)C[C@@H]1CC#N (stereo partly shown) [1-186] | 14% | 36%
34 | C=CC(=O)N1CCN(c2nc(OC[C@@H]3CCCN3CC)nc3c2CN(C2CCc4ccccc42)C3)C[C@@H]1CC#N (stereo partly shown) [1-175] | 60% | 82%
35 | C=C(F)C(=O)N1CCN(c2nc(OC[C@@H]3CCCN3C)nc3c2CN(C2CCc4ccccc42)C3)C[C@@H]1CC#N (stereo partly shown) [1-138] | 38% | 54%
36 | C=CC(=O)N1CCN(c2nc(OC[C@@H]3CCCN3C)nc3c2CN(C2CCc4ccccc42)C3)[C@H](C(N)=O)C1 (stereo partly shown) [1-182] | 7% | 30%
37 | C=C(F)C(=O)N1CCN(c2nc(OC[C@@H]3CCCN3C)nc3c2CN(Cc2c(Cl)ccc4ccccc24)C3)C[C@@H]1CC#N [1-254] | 31% | 73%
38 | C=CC(=O)N1CCN(c2nc(OC[C@@H]3CCCN3C)nc3c2CN(Cc2cccc(Cl)c2Cl)C3)C[C@@H]1CC#N [1-81] | 96% | 98%
39 | C=CC(=O)N1CCN(c2nc(OC[C@@H]3CCCN3C)nc3c2CN(c2cccc4cccc(C)c24)C3)[C@@H](C)C1 [1-31] | 0% | 6%
40 | C=CC(=O)N1CCN(c2nc(Oc3cccnc3C3CC3)nc3c2CN(C2CCc4ccccc42)C3)C[C@@H]1CC#N (stereo partly shown) [1-173] | 6% | 24%
41 | C=C(F)C(=O)N1CCN(c2nc(OC[C@@H]3CCCN3C)nc3c2CN(Cc2ccccc2C(F)(F)F)C3)C[C@@H]1CC#N [1-221] | 62% | 92%

From patent US20210292330A1, “PYRROLIDINE-FUSED HETEROCYCLES” (Erasca, Inc., priority 2020, published 2021)
